Measurements reported in patent publication US20230122967A1, “NOVEL COMPOUNDS AS INHIBITORS OF PCSK9” (SHENGKE PHARMACEUTICALS (JIANGSU) LTD., priority 2020, published 2023).

What was measured:
Format in all cases: cell-based
HepG2 cells [1] = test: Measurement of Dil-LDL uptake in HepG2 cells; settings: Homo sapiens, 24 h, 10 μM for 20 h, then 20 μg/mL Dil-LDL 4 h, read-out: LDL uptake 10 μM (fold of vehicle)
Protocol: HepG2 cells were maintained in MEM supplemented with 10% FBS. The cells were seeded in 96 well black plates at a density of 1×10^4 cells per well and grown to 70-80% confluence. Afterwards, cells were changed to serum-free Opti-MEM for 1 h and followed by incubation with 10 μM Berberine or compounds of the present disclosure for 20 h. Then, 20 μg/mL Dil-LDL was added and incubated at 37° C. in the dark for additional 4 h. Cells were extensively washed three times with PBS, and LDL uptake was determined on a fluorescence plate reader at an excitation wavelength of 520 nm and emission wavelength of 580 nm.

HepG2 cells [2] = test: Cell viability assay (HepG2 Survival assay, CellTiter-Glo); settings: 24 hr, cellular ATP levels
Protocol: (§1) HepG2 cells (ATCC, Cat.: HB-8065) were maintained in Growth medium-Eagle's Minimum Essential Medium (Corning, 10-010-CVR), 10% FBS (Gibco, 10099-141), Penicillin (100 units/mL), Streptomycin ([…]). HepG2 cells were incubated at 37° C., 5% CO2. HepG2 cells were plated in black clear bottom 96-well plates (Corning, 3063) at 40,000 cells/well in 100 μL of growth media. After an overnight incubation, the culture media were changed to serum-free OptiMEM media (Gibco, 31985-062), 90 μL/well. Vehicle, PF-06446846 hydrochloride, berberine, or test compound was added to the culture media, 10 μL/well. After 24 hr cellular ATP levels were measured using CellTiter-Glo® 2.0 Assay (Promega, G9242).

PCSK9 = PCSK9 ELISA on HepG2 culture medium; settings: HepG2 cells, 24 hr
Protocol: as §1, with “flat” for “black clear”, “3599)” for “3063)”, “medium was harvested, and 10 μL of the medium” for “cellular ATP levels”, “used for the PCSK9 ELISA (R&D Systems, SPC900).” for “measured using CellTiter-Glo® 2.0 Assay (Promega, G9242).”

PCSK9 mRNA = test: RT-Q-PCR analysis of PCSK9 mRNA in HepG2 cells; settings: Homo sapiens, 24 h, normalized to GAPDH, read-out: HepG2 Q-PCR PCSK9 mRNA level decrease (10 μM)
Protocol: HepG2 cells (ATCC, Cat.: HB-8065) were maintained in Growth medium-Eagle's Minimum Essential Medium (Corning, 10-010-CVR), 10% FBS (Gibco, 10099-141), Penicillin (100 units/mL), Streptomycin ([…]). HepG2 cells were incubated at 37° C., 5% CO2.
Cells were cultured in growth medium as described above and treated with the vehicle, Berberine or test compound for 24 h. The RNA was extracted using the Total RNA mini Kit (Tiangen, Beijing, China) according to the manufacturer's instructions. Reverse transcription was carried out using the High-Capacity cDNA reverse transcription kit (Thermo Fisher Scientific). Quantitative real-time PCR was performed using a reaction mixture containing cDNA, specific primers [PCSK9, 5′-[…]-3′ (forward) and 5′-[…]-3′ (reverse); GAPDH, 5′-[…]-3′ (forward) and 5′-[…]-3′ (reverse)] and Maxima SYBR Green/ROX qPCR Master Mix (Thermo Fisher Scientific). PCR amplification was carried out in a Real-Time PCR System. The real-time PCR conditions were 37° C. 10 min; 95° C. 10 min; 95° C. 15 s, 60° C. 30 s, 72° C. 30 s, 40 cycle. The amount of % RNA was normalized to the GAPDH level in the same samples.

## CC(C)c1ccc(Oc2ccc(NC(=O)CN(CC(=O)Nc3ccccc3)C(=O)c3cc4cccc(C#N)c4[nH]3)cc2)cc1 [Compound 201-269]
HepG2 cells [1]
  fold induction at 10 µM: 1.34
HepG2 cells [2]
  HepG2 Survival assay (10 μM): 106%
PCSK9
  HepG2 PCSK9 ELISA (10 μM) % inhibition: 53%
PCSK9 mRNA
  inhibition at 10 µM: 87%

## CN(C(=O)CN(CC(=O)Nc1ccc(Oc2ccc(F)c(F)c2)cc1)C(=O)c1cc2cccc(F)c2[nH]1)C1CCCC1 [Compound 201-75]
HepG2 cells [1]
  fold induction at 10 µM: 2.92
HepG2 cells [2]
  HepG2 Survival assay (10 μM): 100%
PCSK9
  HepG2 PCSK9 ELISA (10 μM) % inhibition: 80%
PCSK9 mRNA
  inhibition at 10 µM: 90%

## CN(C(=O)CN(CC(=O)Nc1ccc(Oc2ccc(F)c(F)c2)cc1)C(=O)c1cc2cccc(F)c2[nH]1)C1Cc2ccccc2C1 [Compound 201-80]
HepG2 cells [1]
  fold induction at 10 µM: 3.07
HepG2 cells [2]
  HepG2 Survival assay (10 μM): 100%
PCSK9
  HepG2 PCSK9 ELISA (10 μM) % inhibition: 80%
PCSK9 mRNA
  inhibition at 10 µM: 88%

## CC(C)c1ccc(Oc2ccc(NC(=O)CN(CC(=O)NC3CCCC3)C(=O)c3cc4cccc(F)c4[nH]3)cc2)cc1 [Compound 201-227]
HepG2 cells [1]
  fold induction at 10 µM: 1.37
HepG2 cells [2]
  HepG2 Survival assay (10 μM): 112%
PCSK9
  HepG2 PCSK9 ELISA (10 μM) % inhibition: 71%
PCSK9 mRNA
  inhibition at 10 µM: 56%

## CC(C)c1ccc(Oc2ccc(NC(=O)CN(CC(=O)NCc3ccccc3)C(=O)c3ccc(C(F)(F)F)o3)cc2)cc1 [Compound 201-245]
HepG2 cells [1]
  fold induction at 10 µM: 1.11
HepG2 cells [2]
  HepG2 Survival assay (10 μM): 101%
PCSK9
  HepG2 PCSK9 ELISA (10 μM) % inhibition: 76%

## CN(C(=O)CN(CC(=O)Nc1ccc(Oc2ccccc2)cc1)C(=O)c1ccc(C(F)(F)F)o1)C1Cc2ccccc2C1 [Compound 201-110]
HepG2 cells [1]
  fold induction at 10 µM: 4.76
HepG2 cells [2]
  HepG2 Survival assay (10 μM): 100%
PCSK9
  HepG2 PCSK9 ELISA (10 μM) % inhibition: 84%
PCSK9 mRNA
  inhibition at 10 µM: 88%

## CN(Cc1ccccc1F)C(=O)CN(CC(=O)Nc1ccc(Oc2ccccc2)cc1)C(=O)c1ccc(C(F)(F)F)o1 [Compound 201-109]
HepG2 cells [1]
  fold induction at 10 µM: 4.69
HepG2 cells [2]
  HepG2 Survival assay (10 μM): 100%
PCSK9
  HepG2 PCSK9 ELISA (10 μM) % inhibition: 92%
PCSK9 mRNA
  inhibition at 10 µM: 90%

## CC(C)c1ccc(Oc2ccc(NC(=O)CN(CC(=O)NCc3ccccc3)C(=O)c3cc4cccc(F)c4[nH]3)cc2)cc1 [Compound 201-242]
HepG2 cells [1]
  fold induction at 10 µM: 2.43
HepG2 cells [2]
  HepG2 Survival assay (10 μM): 115%
PCSK9
  HepG2 PCSK9 ELISA (10 μM) % inhibition: 74%
PCSK9 mRNA
  inhibition at 10 µM: 77%

## CN(C(=O)CN(CC(=O)Nc1ccc(Oc2ccc(F)c(F)c2)cc1)C(=O)c1ccco1)C1Cc2ccccc2C1 [Compound 201-134]
HepG2 cells [1]
  fold induction at 10 µM: 5.3
HepG2 cells [2]
  HepG2 Survival assay (10 μM): 100%
PCSK9
  HepG2 PCSK9 ELISA (10 μM) % inhibition: 90%
PCSK9 mRNA
  inhibition at 10 µM: 92%

## CC(C)c1ccc(Oc2ccc(NC(=O)CN(CC(=O)Nc3ccccc3)C(=O)c3ccc(C(F)(F)F)[nH]3)cc2)cc1 [Compound 201-265]
HepG2 cells [1]
  fold induction at 10 µM: 1.57
HepG2 cells [2]
  HepG2 Survival assay (10 μM): 93%
PCSK9
  HepG2 PCSK9 ELISA (10 μM) % inhibition: 71%
PCSK9 mRNA
  inhibition at 10 µM: 76%

## CN(C(=O)CN(CC(=O)Nc1ccc(Oc2ccc(F)cc2)cc1)C(=O)c1cc2cccc(F)c2[nH]1)C1Cc2ccccc2C1 [Compound 201-29]
HepG2 cells [1]
  fold induction at 10 µM: 3.07
HepG2 cells [2]
  HepG2 Survival assay (10 μM): 100%
PCSK9
  HepG2 PCSK9 ELISA (10 μM) % inhibition: 61%
PCSK9 mRNA
  inhibition at 10 µM: 88.5%

## COc1ccc(Oc2ccc(NC(=O)CN(CC(=O)Nc3ccccc3)C(=O)c3cc4cccc(F)c4[nH]3)cc2)cc1 [Compound 201-256]
HepG2 cells [1]
  fold induction at 10 µM: 2.43
HepG2 cells [2]
  HepG2 Survival assay (10 μM): 109%
PCSK9
  HepG2 PCSK9 ELISA (10 μM) % inhibition: 78%
PCSK9 mRNA
  inhibition at 10 µM: 75%

## CN(C(=O)CN(CC(=O)Nc1ccc(Oc2ccc(F)cc2)cc1)C(=O)c1cc2cccc(F)c2[nH]1)C1CCCC1 [Compound 201-65]
HepG2 cells [1]
  fold induction at 10 µM: 1.84
HepG2 cells [2]
  HepG2 Survival assay (10 μM): 100%
PCSK9
  HepG2 PCSK9 ELISA (10 μM) % inhibition: 85%
PCSK9 mRNA
  inhibition at 10 µM: 87%

## CN(Cc1ccccc1F)C(=O)CN(CC(=O)Nc1ccc(Oc2ccc(F)c(F)c2)cc1)C(=O)c1ccc(C(F)(F)F)o1 [Compound 201-115]
HepG2 cells [1]
  fold induction at 10 µM: 4.07
HepG2 cells [2]
  HepG2 Survival assay (10 μM): 100%
PCSK9
  HepG2 PCSK9 ELISA (10 μM) % inhibition: 90%
PCSK9 mRNA
  inhibition at 10 µM: 90%

## CN(C(=O)CN(CC(=O)Nc1ccc(Oc2ccc(F)cc2)cc1)C(=O)c1ccc(C(F)(F)F)o1)C1Cc2ccccc2C1 [Compound 201-104]
HepG2 cells [1]
  fold induction at 10 µM: 4.15
HepG2 cells [2]
  HepG2 Survival assay (10 μM): 100%
PCSK9
  HepG2 PCSK9 ELISA (10 μM) % inhibition: 83%
PCSK9 mRNA
  inhibition at 10 µM: 86%

## CN(Cc1ccccc1F)C(=O)CN(CC(=O)Nc1ccc(Oc2ccccc2)cc1)C(=O)c1cc2cccc(F)c2[nH]1 [Compound 201-74]
HepG2 cells [1]
  fold induction at 10 µM: 3.92
HepG2 cells [2]
  HepG2 Survival assay (10 μM): 96%
PCSK9
  HepG2 PCSK9 ELISA (10 μM) % inhibition: 77%
PCSK9 mRNA
  inhibition at 10 µM: 88%

## CN(C(=O)CN(CC(=O)Nc1ccc(Oc2ccccc2)cc1)C(=O)c1cc2cccc(F)c2[nH]1)C1Cc2ccccc2C1 [Compound 201-31]
HepG2 cells [1]
  fold induction at 10 µM: 2.07
HepG2 cells [2]
  HepG2 Survival assay (10 μM): 100%
PCSK9
  HepG2 PCSK9 ELISA (10 μM) % inhibition: 48%
PCSK9 mRNA
  inhibition at 10 µM: 73%

## CN(C(=O)CN(CC(=O)Nc1ccc(Oc2ccccc2)cc1)C(=O)c1cc2cccc(F)c2[nH]1)C1CCCC1 [Compound 201-70]
HepG2 cells [1]
  fold induction at 10 µM: 1.69
HepG2 cells [2]
  HepG2 Survival assay (10 μM): 100%
PCSK9
  HepG2 PCSK9 ELISA (10 μM) % inhibition: 76%
PCSK9 mRNA
  inhibition at 10 µM: 85%

## CN(C(=O)CN(CC(=O)Nc1ccc(Oc2ccc(F)c(F)c2)cc1)C(=O)c1ccc(C(F)(F)F)o1)C1Cc2ccccc2C1 [Compound 201-116]
HepG2 cells [1]
  fold induction at 10 µM: 3.76
HepG2 cells [2]
  HepG2 Survival assay (10 μM): 100%
PCSK9
  HepG2 PCSK9 ELISA (10 μM) % inhibition: 81%
PCSK9 mRNA
  inhibition at 10 µM: 88%

## CC(C)c1ccc(Oc2ccc(NC(=O)CN(CC(=O)NCc3ccccc3)C(=O)c3cc4cccc(C#N)c4[nH]3)cc2)cc1 [Compound 201-253]
HepG2 cells [1]
  fold induction at 10 µM: 1.77
HepG2 cells [2]
  HepG2 Survival assay (10 μM): 110%
PCSK9
  HepG2 PCSK9 ELISA (10 μM) % inhibition: 61%
PCSK9 mRNA
  inhibition at 10 µM: 59%

## O=C(CN(CC(=O)Nc1ccc(Oc2ccc(C(F)(F)F)cc2)cc1)C(=O)c1cc2cccc(F)c2[nH]1)NCc1ccccc1 [Compound 201-205]
HepG2 cells [1]
  fold induction at 10 µM: 1.1
HepG2 cells [2]
  HepG2 Survival assay (10 μM): 90%
PCSK9
  HepG2 PCSK9 ELISA (10 μM) % inhibition: 85%
PCSK9 mRNA
  inhibition at 10 µM: 92%

## COc1ccc2cc3[n+](cc2c1OC)CCc1cc2c(cc1-3)OCO2 [Berberine, reference compound]
HepG2 cells [1]
  fold induction at 10 µM: 2.54
PCSK9
  HepG2 PCSK9 ELISA (10 μM) % inhibition: 52%
PCSK9 mRNA
  inhibition at 10 µM: 35%

## N#Cc1cccc2cc(C(=O)N(CC(=O)Nc3ccccc3)CC(=O)Nc3ccc(Oc4ccc(C(F)(F)F)cc4)cc3)[nH]c12 [Compound 201-267]
HepG2 cells [1]
  fold induction at 10 µM: 1.34
HepG2 cells [2]
  HepG2 Survival assay (10 μM): 103%
PCSK9
  HepG2 PCSK9 ELISA (10 μM) % inhibition: 56%
PCSK9 mRNA
  inhibition at 10 µM: 79%
